Experimental data published in ChEMBL document CHEMBL1124726, “Novel [(diazomethyl)carbonyl]-1,2,3,4-tetrahydronaphthalene derivatives as potential photoaffinity ligands for the 5-HT1A receptor” (J Med Chem, 1990).

How the values were obtained:
[1] = target: T1, 5-hydroxytryptamine receptor 1A (Rattus norvegicus, UniProt P19327); assay: Binding affinity to 5-hydroxytryptamine 1A receptor in rat hippocampus using [3H]-8-OH- DPAT as radioligand; format: tissue-based
T1 sequence (P19327 whole entry): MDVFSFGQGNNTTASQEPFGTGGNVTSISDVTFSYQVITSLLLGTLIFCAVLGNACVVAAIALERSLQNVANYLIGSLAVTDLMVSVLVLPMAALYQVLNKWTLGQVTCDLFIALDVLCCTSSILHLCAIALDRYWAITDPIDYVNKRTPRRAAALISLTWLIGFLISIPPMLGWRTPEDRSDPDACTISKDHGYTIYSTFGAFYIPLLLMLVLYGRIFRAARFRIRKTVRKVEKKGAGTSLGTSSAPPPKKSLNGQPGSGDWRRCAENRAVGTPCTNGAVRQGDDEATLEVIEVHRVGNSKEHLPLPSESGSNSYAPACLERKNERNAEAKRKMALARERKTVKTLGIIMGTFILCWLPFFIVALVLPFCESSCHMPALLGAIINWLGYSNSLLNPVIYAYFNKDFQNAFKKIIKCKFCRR

[2] = target: T1, 5-hydroxytryptamine receptor 1A; assay: Binding affinity to 5-hydroxytryptamine 1A receptor in rat cortex using [3H]-8-OH- DPAT as radioligand

In the case of CCCN(CCC)C1CCc2cccc(OCC(=O)C=[N+]=[N-])c2C1 (configuration not stated), the IC50 [1] is reported as 78.1 nM and the IC50 [2] is reported as 72 nM.

CCCN(CCC)C1CCc2cccc(OC(=O)[CH-][N+]#N)c2C1 (configuration not stated) was tested, and the IC50 [1] was 155 nM and the IC50 [2] was 107 nM.

With CCCN(CCC)C1CCc2cccc(C(=O)OC)c2C1 (configuration not stated) the IC50 [2] was 5.4 nM.

CCCN(CCC)C1CCc2cccc(C(=O)[CH-][N+]#N)c2C1 (configuration not stated) gave an IC50 [1] of 24 nM and an IC50 [2] of 20 nM.
